Assay results: article PMC11571207, “Stereorandomized Oncocins with Preserved Ribosome Binding and Antibacterial Activity” (Journal of Medicinal Chemistry, 2024)
Where two headings read alike, the source gives them in different places. No end group written: not given here.

Columns and labels:
[1] = test system: E. coli ribosome, U2506 of the 23S rRNA; experiment: Ribosome footprinting (CMCT modification of U2506); format: binding; settings: 1 μM peptide, 10.5 μM CMCT, purified E. coli ribosomes (5 pmol), 25 °C; primer extension, sequencing gel
Protocol: A 5 mL culture of E. coli MG1655 (WT-cells) was grown in LB overnight (220 rpm, 37 °C). One liter LB medium was inoculated, and bacteria were grown to OD = 0.6 (220 rpm. 37 °C); cells were centrifuged in centrifuge bottles, and the pellet was resuspended in ice-cold water and transferred in 50 mL falcon tubes. Falcon tubes were centrifuged, the supernatant was removed, the pellet was resuspended in 15 mL polysome buffer (TRIS/HCl pH 7.5 20 mM, NH4Cl 100 mM, MgCl2 10 mM, EDTA 0.5 mM, β-mercaptoethanol 60 mM), frozen dropwise in N2 (l), and stored at −80 °C. The cells were ground in CryoMil with the standard program (1 min precooling, 2 min grinding 5/s, 2 min cooling, 2 min grinding 5/s). The powder was transferred in 50 mL falcon tubes containing N2 (l) and stored at −80 °C. The lysates were thawed with a water bath (30 °C), put on ice, transferred to precooled Eppendorf tubes, and centrifuged (5000 g, 2 min, 4 °C). The clear lysate was transferred to new precooled tubes, centrifuged (14 000 g, 10 min, 4 °C), and the supernatant was transferred to new precooled tubes. 300 mL of clear lysate was loaded on a 10–50% sucrose gradient in CMCT buffer (K-borate buffer pH 8 80 mM, MgCl2 25 mM, NH4Cl 100 mM) and ultracentrifuged (3 h, 234 050 g, 4 °C). The fractions containing monosomes and polysomes were collected and ultracentrifuged overnight (16 h, 260 800 g, 4 °C). The supernatant was discarded, and the pellet was washed with ice-cold CMCT buffer. The ribosomes were resuspended in 100 μL CMCT buffer with a mini magnetic stirring bar and stored on ice. The concentration of ribosomes was measured in 1/200 dilution in water.
Ribosomes (5 pmol) were mixed with 8 μL of CMCT buffer, the compound of interest 1 μM, and water to a final volume of 20 μL in a precooled tube and incubated at 25 °C for 10 min. 20 μL of CMCT (10.5 μM) in water was added and incubated at 25 °C for 30 min. The reaction was stopped with 160 μL of EDTA (30 μM), and the samples were stored on ice.
160 μL portion of RNA resuspension buffer and 40 μL of 10% SDS were added, and the samples were vigorously resuspended. 400 μL of prewarmed acid phenol was added, and the samples were incubated on a thermomixer (5 min, 1200 rpm, 65 °C). The samples were put on ice for 5 min and centrifuged (5 min, 14 000 g, RT). The watery phase was transferred to a new precooled tube, 400 μL of phenol–chloroform–isoamyl alcohol (4 °C) was added, and the samples were mixed (5 min, 1200 rpm, RT). The samples were centrifuged again (5 min, 14 000g, RT), and the watery phase was transferred to another precooled tube. 34 μL of 3 M NaOAc pH 5.5, 0.8 μL of Glycoblue and 400 μL of isopropanol were added, and the samples were incubated for 3 h at −80 °C. The samples were then centrifuged (40 min, 21 000g, 4 °C), and the pellet was washed with ice-cold 70% EtOH. The residual liquid was removed, and the samples were dried (5 min, 37 °C). The samples were resuspended in 20 μL of water, the concentration was measured, and the samples were −80 °C.
Primers designed to probe the positions 2506 of the 23S rRNA (5-[sequence]-3′) were labeled with radioactive phosphate (γ^32 P-ATP). […] To prepare primers for one reaction, 1 μL of primer (0.3 μM), 0.4 μL of 5× PNK-buffer, 0.25 μL of water, 0.2 μL of γ^32 P-ATP, and 0.15 μL of T4 PNK were mixed and incubated at 37 °C.

S. aureus COL (MRSA) = experiment: microbe, parasite or virus in culture; settings: for MIC S. aureus, 12.5% MHB / MIC S. aureus, Full MHB: S. aureus COL (MRSA), 16–20 h at 37 °C; for MIC S. aureus, 12.5% MHB: 12.5% Müller–Hinton medium; for MIC S. aureus, Full MHB: full Müller–Hinton medium; for MIC S. aureus COL (MRSA): supplement CSV
Method in brief: (§1)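 Read-out was visible growth after MTT addition, the MIC being the lowest inhibitory peptide concentration. Bacteria grown to log phase in LB were exposed in MH medium to peptide from 64 μg/mL in twofold dilutions for 15-18h at 37°C.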

A. baumannii ATCC19606 = experiment: microbe, parasite or virus in culture; settings: for MIC A. baumannii, 12.5% MHB / MIC A. baumannii, Full MHB: A. baumannii ATCC19606, 16–20 h at 37 °C; for MIC A. baumannii, 12.5% MHB: 12.5% Müller–Hinton medium; for MIC A. baumannii, Full MHB: full Müller–Hinton medium; for MIC A. baumannii ATCC19606: supplement CSV
Method in brief: as §1

P. aeruginosa PAO1 = experiment: microbe, parasite or virus in culture; settings: for MIC P. aeruginosa, 12.5% MHB / MIC P. aeruginosa, Full MHB: P. aeruginosa PAO1, 16–20 h at 37 °C; for MIC P. aeruginosa, 12.5% MHB: 12.5% Müller–Hinton medium; for MIC P. aeruginosa, Full MHB: full Müller–Hinton medium; for MIC P. aeruginosa PAO1: supplement CSV
Method in brief: as §1

K. pneumoniae NCTC 418 = experiment: microbe, parasite or virus in culture; settings: for MIC K. pneumoniae, 12.5% MHB / MIC K. pneumoniae, Full MHB: K. pneumoniae NCTC 418, 16–20 h at 37 °C; for MIC K. pneumoniae, 12.5% MHB: 12.5% Müller–Hinton medium; for MIC K. pneumoniae, Full MHB: full Müller–Hinton medium; for MIC K. pneumoniae NCTC418: supplement CSV
Method in brief: as §1

E. coli W3110 [2] = experiment: microbe, parasite or virus in culture; settings: for MIC E. coli, 12.5% MHB / MIC E. coli, Full MHB: E. coli W3110, 16–20 h at 37 °C, broth microdilution; for MIC E. coli, 12.5% MHB: 12.5% Müller–Hinton medium; for MIC E. coli, Full MHB: full Müller–Hinton medium; for MIC E. coli W3110: supplement CSV
Method in brief: as §1

human red blood cells = experiment: Hemolysis assay, minimum hemolytic concentration; settings: for Haemolysis on hRBC, MHC: 2.5% human red blood cells (final) in 10 mM phosphate, 150 mM NaCl, pH 7.4, 25 °C, 4 h, visual inspection; for MHC human red blood cells: supplement CSV
[3] = test system: P. aeruginosa PA14 4.13 (phoQ); settings: for MIC P. aeruginosa PA14 4.13 (phoQ), 12.5% MHB / MIC P. aeruginosa PA14 4.13 (phoQ), full MHB: polymyxin B resistant strain, 16–20 h at 37 °C; for MIC P. aeruginosa PA14 4.13 (phoQ), 12.5% MHB: 12.5% MHB pH 7.4; for MIC P. aeruginosa PA14 4.13 (phoQ), full MHB: full MHB pH 7.4; for MIC P. aeruginosa PA14 4.13: supplement CSV
E. coli W3110 [4] = experiment: Time-killing kinetic assay, E. coli; format: cell-based, Escherichia coli; settings: 8× MIC, full MHB pH 7.4, 0-6 h, n = 6
Protocol: (§2) Time-Killing Kinetic Assay
(§3) Single colonies of E. coli W3110 and K. pneumoniae NCTC418 were picked and grown overnight with shaking (180 rpm) in LB (Sigma-Aldrich, Buchs, Switzerland) medium 5 mL overnight at 37 °C. The overnight bacterial cultures were diluted to OD600 = 0.002 (2 × 10^6 CFU/mL) in fresh MHB medium. Stock solutions of AMPs in sterilized milliQ water were prepared in 1 mg/mL and were diluted to two times more than required concentration in fresh MHB (Sigma- Aldrich, Buchs, Switzerland) medium at pH 7.4. 100 μL of prepared bacteria solution in MHB and 100 μL of samples in MHB were mixed in a 96-well microtiter plate (TPP, untreated, Corning Incorporated, Kennebunk, USA). Untreated bacteria at 1 × 10^6 CFU/mL were used as a growth control. 96-well microtiter plates were incubated in 37 °C with shaking (180 rpm). Surviving bacteria were quantified at 0, 0.5, 1, 2, 4 and 6 h by plating 10 -fold dilutions of the sample in sterilized normal saline on LB agar plates. LB agar plates were incubated at 37 °C for 10 h, and the number of individual colonies was counted at each time point. The assay was performed in triplicate in a biosafety level 2 lab. […]

K. pneumoniae NCTC418 = experiment: Time-killing kinetic assay, K. pneumoniae; format: cell-based, Klebsiella pneumoniae; settings: 8× MIC, full MHB pH 7.4, 0-6 h, n = 6
Protocol: as §2, §3

Sequence	Protection of U2506 of 23S rRNA from CMCT modification (band at C2507) [1]	MIC S. aureus, 12.5% MHB (S. aureus COL (MRSA))	MIC S. aureus, Full MHB (S. aureus COL (MRSA))	MIC S. aureus COL (MRSA) (S. aureus COL (MRSA); 12.5% MH pH 7.4)	MIC S. aureus COL (MRSA) (S. aureus COL (MRSA); full MH pH 7.4)	MIC A. baumannii, 12.5% MHB (A. baumannii ATCC19606)	MIC A. baumannii, Full MHB (A. baumannii ATCC19606)	MIC A. baumannii ATCC19606 (A. baumannii ATCC19606; 12.5% MH pH 7.4)	MIC A. baumannii ATCC19606 (A. baumannii ATCC19606; full MH pH 7.4)	MIC P. aeruginosa, 12.5% MHB (P. aeruginosa PAO1)	MIC P. aeruginosa, Full MHB (P. aeruginosa PAO1)	MIC P. aeruginosa PAO1 (P. aeruginosa PAO1; 12.5% MH pH 7.4)	MIC P. aeruginosa PAO1 (P. aeruginosa PAO1; full MH pH 7.4)	MIC K. pneumoniae, 12.5% MHB (K. pneumoniae NCTC 418)	MIC K. pneumoniae, Full MHB (K. pneumoniae NCTC 418)	MIC K. pneumoniae NCTC418 (K. pneumoniae NCTC 418; 12.5% MH pH 7.4)	MIC K. pneumoniae NCTC418 (K. pneumoniae NCTC 418; full MH pH 7.4)	MIC E. coli, 12.5% MHB (E. coli W3110 [2])	MIC E. coli, Full MHB (E. coli W3110 [2])	MIC E. coli W3110 (E. coli W3110 [2]; 12.5% MH pH 7.4)	further results
VDKPPYLPRPRPPRRIYNR [sr8Cterm-Onc] (VDKPPYLPRPRPPRRIYNR-NH2; also: residues 12-19 stereorandomized (1:1 L/D mixture)) [oncocin with 8 C-terminal residues stereorandomized]	protected from CMCT modification	> 16 µg/mL	> 64 µg/mL	>16 µg/mL	>64 µg/mL	4 µg/mL	32 µg/mL	4 µg/mL	32 µg/mL	8 µg/mL	64 µg/mL	8 µg/mL	64 µg/mL	2 µg/mL	4 µg/mL	2 µg/mL	4 µg/mL	4 µg/mL	8 µg/mL	4 µg/mL	MIC E. coli W3110 (E. coli W3110 [2]; full MH pH 7.4): 8 µg/mL; Haemolysis on hRBC, MHC (human red blood cells): >1000 µg/mL; MHC human red blood cells (human red blood cells): >1000 µg/mL; MIC P. aeruginosa PA14 4.13 (phoQ), 12.5% MHB [3]: 8 µg/mL; MIC P. aeruginosa PA14 4.13 (phoQ), full MHB [3]: 64 µg/mL; MIC P. aeruginosa PA14 4.13 ([3]; 12.5% MH pH 7.4): 8 µg/mL; MIC P. aeruginosa PA14 4.13 ([3]; full MH pH 7.4): 64 µg/mL; Killing profile against E. coli (E. coli W3110 [4]): comparable kinetics to L-Onc; Killing profile against K. pneumoniae (K. pneumoniae NCTC418): comparable kinetics to L-Onc
VDKPPYLPRPRPPRRIYNR [sr9Cterm-Onc] (VDKPPYLPRPRPPRRIYNR-NH2; also: residues 11-19 stereorandomized (1:1 L/D mixture)) [oncocin containing nine stereorandomized C-terminal residues]	protected from CMCT modification	32 µg/mL	> 64 µg/mL	32 µg/mL	>64 µg/mL	4 µg/mL	32 µg/mL	4 µg/mL	32 µg/mL	8 µg/mL	64 µg/mL	8 µg/mL	64 µg/mL	4 / 4 μg/mL	4 / 4 μg/mL	4 µg/mL	4 µg/mL	4 µg/mL	8 µg/mL	4 µg/mL	MIC E. coli W3110 (E. coli W3110 [2]; full MH pH 7.4): 8 µg/mL; Haemolysis on hRBC, MHC (human red blood cells): >1000 µg/mL; MHC human red blood cells (human red blood cells): >1000 µg/mL; MIC P. aeruginosa PA14 4.13 (phoQ), 12.5% MHB [3]: 8 µg/mL; MIC P. aeruginosa PA14 4.13 (phoQ), full MHB [3]: 64 µg/mL; MIC P. aeruginosa PA14 4.13 ([3]; 12.5% MH pH 7.4): 8 µg/mL; MIC P. aeruginosa PA14 4.13 ([3]; full MH pH 7.4): 64 µg/mL; Killing profile against E. coli (E. coli W3110 [4]): comparable kinetics to L-Onc; Killing profile against K. pneumoniae (K. pneumoniae NCTC418): comparable kinetics to L-Onc
